Results reported in ChEMBL document CHEMBL3045943, “Novel N-aryl(alkaryl)-2-[(3-R-2-oxo-2H-[1,2,4]triazino[2,3-c]quinazoline-6-yl)thio]acetamides: synthesis, cytotoxicity, anticancer activity, COMPARE analysis and docking” (2013).

Experiments:
Format in all cases: functional
[1] = test system: Photobacterium leiognathi; assay: Growth inhibition of Photobacterium leiognathi Sh1 assessed as bio-luminescence at 0.1 mg/ml after 16 to 18 hr by chronic action test relative to control; parameters: scale not given: the % may be the effect or the level left
[2] = test system: Photobacterium leiognathi; assay: Growth inhibition of Photobacterium leiognathi Sh1 assessed as bio-luminescence at 0.25 mg/ml after 10 min by acute action test relative to control; parameters: scale not given: the % may be the effect or the level left
[3] = test system: Photobacterium leiognathi; assay: Growth inhibition of Photobacterium leiognathi Sh1 assessed as bio-luminescence at 0.025 mg/ml after 16 to 18 hr by chronic action test relative to control; parameters: scale not given: the % may be the effect or the level left
[4] = test system: Photobacterium leiognathi; assay: Growth inhibition of Photobacterium leiognathi Sh1 assessed as bio-luminescence at 0.25 mg/ml after 16 to 18 hr by chronic action test relative to control; parameters: scale not given: the % may be the effect or the level left
[5] = test system: Photobacterium leiognathi; assay: Growth inhibition of Photobacterium leiognathi Sh1 assessed as bio-luminescence at 0.025 mg/ml after 10 min by acute action test relative to control; parameters: scale not given: the % may be the effect or the level left
[6] = test system: Photobacterium leiognathi; assay: Growth inhibition of Photobacterium leiognathi Sh1 assessed as bio-luminescence at 0.1 mg/ml after 10 min by acute action test relative to control; parameters: scale not given: the % may be the effect or the level left
[7] = test system: SR; assay: Cytotoxicity against Homo sapiens (human) SR cells assessed as cell growth at 10 uM after 48 hr by SRB assay relative to control; details: read-out: Activity
[8] = test system: K562; assay: Cytotoxicity against Homo sapiens (human) K562 cells assessed as cell growth at 10 uM after 48 hr by SRB assay relative to control; details: K562, 48 h, read-out: Activity
[9] = test system: UO-31; assay: Cytotoxicity against Homo sapiens (human) UO31 cells assessed as cell growth at 10 uM after 48 hr by SRB assay relative to control; details: UO-31, 48 h, read-out: Activity
[10] = test system: MOLT-4; assay: Cytotoxicity against Homo sapiens (human) MOLT4 cells assessed as cell growth at 10 uM after 48 hr by SRB assay relative to control; details: MOLT-4, 48 h, read-out: Activity
[11] = test system: LOX IMVI; assay: Cytotoxicity against Homo sapiens (human) LOXIMVI cells assessed as cell growth at 10 uM after 48 hr by SRB assay relative to control; details: read-out: Activity
[12] = test system: NCI-H522; assay: Cytotoxicity against Homo sapiens (human) NCI-H522 cells assessed as cell growth at 10 uM after 48 hr by SRB assay relative to control; details: NCI-H522, 48 h, read-out: Activity
[13] = test system: U-251; assay: Cytotoxicity against Homo sapiens (human) U251 cells assessed as cell growth at 10 uM after 48 hr by SRB assay relative to control; details: U-251, 48 h, read-out: Activity

Compound: COc1ccccc1NC(=O)CSc1nc2ccccc2c2nc(=O)c(-c3ccccc3)nn12
- Activity [1]: 11.36%
- Activity [2]: 53.85%
- Activity [3]: 22.73%
- Activity [4]: 18.18%
- Activity [5]: 71.15%
- Activity [6]: 63.46%

Compound: Cc1ccc(-c2nn3c(SCC(=O)Nc4ccc(C(F)(F)F)cc4)nc4ccccc4c3nc2=O)cc1
- Activity [1]: 116.7%
- Activity [2]: 142.5%
- Activity [3]: 51.2%
- Activity [4]: 100%
- Activity [5]: 103.3%
- growth at 10 µM [7]: 66%
- Activity [6]: 113.3%

Compound: Cc1nn2c(SCC(=O)Nc3ccccc3)nc3ccccc3c2nc1=O
- Activity [1]: 61.11%
- Activity [2]: 95.59%
- Activity [3]: 88.89%
- Activity [4]: 57.78%
- Activity [5]: 95.59%
- Activity [6]: 98.53%

Compound: O=C(CSc1nc2ccccc2c2nc(=O)c(-c3ccccc3)nn12)NCc1cccc(C(F)(F)F)c1
- Activity [1]: 10.67%
- Activity [2]: 17.78%
- Activity [3]: 13.33%
- Activity [4]: 0%
- Activity [5]: 66.67%
- Activity [6]: 33.33%

Compound: COc1ccc(CNC(=O)CSc2nc3ccccc3c3nc(=O)c(C)nn23)cc1
- Activity [1]: 176%
- Activity [2]: 151.5%
- Activity [3]: 138.7%
- Activity [4]: 180%
- Activity [5]: 92.3%
- growth at 10 µM [7]: 71.5%
- Activity [6]: 130%

Compound: Cc1nn2c(SCC(=O)Nc3cccc(Cl)c3)nc3ccccc3c2nc1=O
- Activity [1]: 250%
- Activity [2]: 104.5%
- Activity [3]: 185.2%
- Activity [4]: 42.9%
- growth at 10 µM [8]: 57.2%
- Activity [5]: 99.3%
- Activity [6]: 99.1%

Compound: Cc1nn2c(SCC(=O)Nc3ccccc3C(F)(F)F)nc3ccccc3c2nc1=O
- Activity [1]: 100%
- Activity [2]: 88.89%
- Activity [3]: 100%
- Activity [4]: 97.14%
- Activity [5]: 88.89%
- Activity [6]: 86.67%

Compound: Cc1nn2c(SCC(=O)NCc3ccc(F)cc3)nc3ccccc3c2nc1=O
- Activity [1]: 123.1%
- Activity [2]: 91.7%
- Activity [3]: 118.2%
- growth at 10 µM [9]: 61.6%
- Activity [4]: 200%
- Activity [5]: 77.8%
- Activity [6]: 78.8%

Compound: O=C(CSc1nc2ccccc2c2nc(=O)c(-c3ccccc3)nn12)Nc1ccc(Cl)cc1
- growth at 10 µM [10]: 77.5%
- Activity [1]: 212.8%
- Activity [2]: 142.9%
- Activity [3]: 88.9%
- Activity [4]: 87.5%
- Activity [5]: 100%
- Activity [6]: 120%

Compound: O=C(CSc1nc2ccccc2c2nc(=O)c(-c3ccccc3)nn12)Nc1ccccc1
- Activity [1]: 83.33%
- Activity [2]: 47.62%
- Activity [3]: 90.28%
- Activity [4]: 80.56%
- Activity [5]: 95.24%
- Activity [6]: 78.57%

Compound: O=C(CSc1nc2ccccc2c2nc(=O)c(-c3ccccc3)nn12)Nc1cccc(C(F)(F)F)c1
- Activity [1]: 203.13%
- Activity [2]: 46.67%
- Activity [3]: 187.5%
- Activity [4]: 187.5%
- Activity [5]: 96.67%
- Activity [6]: 100%

Compound: O=C(CSc1nc2ccccc2c2nc(=O)c(-c3ccccc3)nn12)NCCc1ccccc1
- Activity [1]: 400%
- growth at 10 µM [11]: 61.1%
- Activity [2]: 119.4%
- Activity [3]: 222.2%
- Activity [4]: 57.1%
- Activity [5]: 109.5%
- Activity [6]: 121.5%

Compound: O=C(CSc1nc2ccccc2c2nc(=O)c(-c3ccccc3)nn12)Nc1cccc(F)c1
- Activity [1]: 38.89%
- Activity [2]: 96.36%
- Activity [3]: 44.44%
- Activity [4]: 92.59%
- Activity [5]: 94.55%
- Activity [6]: 90.91%

Compound: COc1ccc(CNC(=O)CSc2nc3ccccc3c3nc(=O)c(-c4ccccc4)nn23)cc1
- growth at 10 µM [10]: 78.7%
- Activity [1]: 44.4%
- Activity [2]: 138.7%
- Activity [3]: 50%
- Activity [4]: 40%
- Activity [5]: 111.5%
- Activity [6]: 106.2%

Compound: Cc1nn2c(SCC(=O)NCc3ccccc3F)nc3ccccc3c2nc1=O
- Activity [1]: 233.3%
- Activity [2]: 170%
- Activity [3]: 130.2%
- Activity [4]: 200%
- growth at 10 µM [8]: 77.8%
- Activity [5]: 116.7%
- Activity [6]: 66.7%

Compound: Cc1nn2c(SCC(=O)NCc3ccccc3)nc3ccccc3c2nc1=O
- growth at 10 µM [10]: 78.5%
- Activity [1]: 115.4%
- Activity [2]: 91.7%
- Activity [3]: 72.7%
- Activity [4]: 250%
- Activity [5]: 66.7%
- Activity [6]: 87.5%

Compound: Cc1nn2c(SCC(=O)Nc3ccccc3F)nc3ccccc3c2nc1=O
- Activity [1]: 196.43%
- Activity [2]: 50.56%
- Activity [3]: 142.86%
- Activity [4]: 142.86%
- Activity [5]: 84.27%
- Activity [6]: 73.03%

Compound: COc1ccc(-c2nn3c(SCC(=O)Nc4ccccc4C)nc4ccccc4c3nc2=O)cc1
- Activity [1]: 94.55%
- Activity [2]: 68.42%
- Activity [3]: 90.91%
- Activity [4]: 94.55%
- Activity [5]: 96.49%
- Activity [6]: 82.46%

Compound: Cc1nn2c(SCC(=O)NCc3cccc(C(F)(F)F)c3)nc3ccccc3c2nc1=O
- Activity [1]: 92.3%
- Activity [2]: 100%
- Activity [3]: 123.6%
- growth at 10 µM [9]: 54.5%
- Activity [4]: 193.3%
- Activity [5]: 66.7%
- Activity [6]: 75%

Compound: Cc1ccc(-c2nn3c(SCC(=O)Nc4ccc(Cl)cc4)nc4ccccc4c3nc2=O)cc1
- Activity [1]: 93.75%
- Activity [2]: 31.91%
- Activity [3]: 75%
- Activity [4]: 37.5%
- Activity [5]: 68.09%
- Activity [6]: 63.83%

Compound: Cc1ccc(-c2nn3c(SCC(=O)Nc4ccccc4C(=O)O)nc4ccccc4c3nc2=O)cc1
- growth at 10 µM [12]: 78.2%

Compound: COc1ccc(NC(=O)CSc2nc3ccccc3c3nc(=O)c(-c4ccc(C)cc4)nn23)cc1
- Activity [1]: 117%
- Activity [2]: 142.9%
- growth at 10 µM [12]: 57.9%
- Activity [3]: 95.6%
- Activity [4]: 75%
- Activity [5]: 88.3%
- growth at 10 µM [13]: 61.1%
- Activity [6]: 106%

Compound: Cc1ccc(-c2nn3c(SCC(=O)Nc4ccccc4[N+](=O)[O-])nc4ccccc4c3nc2=O)cc1
- Activity [1]: 250%
- Activity [2]: 62.5%
- Activity [3]: 93%
- Activity [4]: 50%
- Activity [5]: 83.3%
- Activity [6]: 36%

Compound: Cc1cccc(NC(=O)CSc2nc3ccccc3c3nc(=O)c(C)nn23)c1
- Activity [1]: 178.57%
- Activity [2]: 73.12%
- Activity [3]: 196.43%
- Activity [4]: 14.29%
- Activity [5]: 96.77%
- Activity [6]: 98.92%

Compound: Cc1nn2c(SCC(=O)NCCc3ccccc3)nc3ccccc3c2nc1=O
- Activity [1]: 100%
- Activity [2]: 100%
- Activity [3]: 136.4%
- growth at 10 µM [9]: 77.3%
- Activity [4]: 133.3%
- Activity [5]: 72.2%
- Activity [6]: 87.5%

Compound: Cc1ccc(-c2nn3c(SCC(=O)Nc4ccc(F)cc4)nc4ccccc4c3nc2=O)cc1
- Activity [1]: 133.33%
- Activity [2]: 8.16%
- Activity [3]: 250%
- Activity [4]: 166.67%
- Activity [5]: 75.51%
- Activity [6]: 36.73%

Compound: Cc1ccc(CNC(=O)CSc2nc3ccccc3c3nc(=O)c(C)nn23)cc1
- Activity [1]: 212.8%
- Activity [2]: 128.6%
- Activity [3]: 122.2%
- Activity [4]: 150%
- Activity [5]: 88.3%
- growth at 10 µM [7]: 81.8%
- Activity [6]: 100%

Compound: COc1ccccc1CNC(=O)CSc1nc2ccccc2c2nc(=O)c(C)nn12
- Activity [1]: 160%
- Activity [2]: 139.4%
- Activity [3]: 93.3%
- Activity [4]: 188%
- Activity [5]: 89.2%
- growth at 10 µM [7]: 75.6%
- Activity [6]: 110%

Compound: CN(C)[C@@H]1C(O)=C(C(N)=O)C(=O)[C@@]2(O)C(O)=C3C(=O)c4c(O)cccc4[C@@](C)(O)[C@H]3C[C@@H]12 [TETRACYCLINE]
- Activity [1]: 0%
- Activity [2]: 0%
- Activity [3]: 0%
- Activity [4]: 0%
- Activity [5]: 80.7%
- Activity [6]: 9.1%

Compound: O=C(CSc1nc2ccccc2c2nc(=O)c(-c3ccccc3)nn12)Nc1cccc(Cl)c1
- Activity [1]: 100%
- Activity [2]: 59.52%
- Activity [3]: 101.39%
- Activity [4]: 101.39%
- Activity [5]: 104.76%
- Activity [6]: 109.52%

Compound: Cc1ccc(-c2nn3c(SCC(=O)Nc4cccc(F)c4)nc4ccccc4c3nc2=O)cc1
- Activity [1]: 32.93%
- Activity [2]: 65.22%
- Activity [3]: 69.51%
- Activity [4]: 41.46%
- Activity [5]: 97.83%
- Activity [6]: 93.48%
